In patent US20060182805A1, “Dosage form and method for sustained release of substituted pyrazine compound” (Jazz Pharmaceuticals, priority 2005, published 2006):
Where two headings read alike, the source gives them in different places.

How the values were obtained:
[1] = Pharmacokinetics of the drug after single oral dose (volume of distribution, half lives); assay type: in vivo; conditions: for half-life: human, plasma, oral
Method: In this case, the drug is eliminated rapidly from the plasma via distribution into other tissues as well as through metabolism and excretion into the urine. The rapid elimination makes it necessary to deliver the drug into the GI tract for extended periods of time, up to about 24 hours. It may also require that the drug be delivered in an ascending profile such as that shown in this FIG. 5. Such ascending profile may be accomplished by increasing the dose from an initial dose in two to five increments to achieve a desired maximum dose or by delivering a dosage form with an ascending profile for the initial two to five doses. Such doses may be delivered every 24 hours or every 12 hours.
A steady state plasma profile occurs after the administration of two to three doses. The achievement of steady state with the desirable Cmax/Cmin ratio after the administration of very few doses is advantageous in that therapeutic levels are achieved in a short time and maintained thereafter. Rapid attainment of steady state allows for faster increases or decreases in dose without unwanted side effects and the resultant titration to a therapeutically effective dose and, if necessary, withdrawal of therapy. The Cmax/Cmin ratio at steady state is less than 3, often less than 2, often less than 1.5 and between 1.0 and 2.

[2] = In vitro release rate (dissolution) from dosage forms, FIG. 3-5; assay type: physicochemical
Method: By “dissolution rate” or “release rate” is intended the amount of active agent released in vitro from a dosage form per unit time into a release medium, usually in units of milligrams per hour (mg/hr). In vitro release rates are performed on dosage forms placed in metal coil sample holders attached to a USP Type VII bath indexer in a constant temperature water bath at 37° C. In addition, other appropriate dissolution test apparatuses may be suitable, such as, USP apparatus I or II. Aliquots of the release rate solutions are injected into a chromatographic system to quantify the amounts of drug released during each testing interval. According to the invention, between 2 and 50% of the dose is released following two hours after exposure of the dosage form to the environment of use. These dissolution rates may be between 2 and 60% or 10 and 50% within the first 4 hours, between about 20 and 80% or 35 and 70% from 4 hours to about 8 hours following exposure to the environment of use between about 35 and 95% or 45 and 85% from 8 hours to about 12 hours following exposure to the environment of use and greater than 50 to 80% or greater than 90% following 12 hours after exposure to the environment of use and greater than 90% following 22 hours after exposure to the environment of use.

half-life ([1]; read-out: final half life of the drug): 10 to 13 h | half-life ([1]; read-out: initial half life of the drug): < 5 h | volume of distribution (Vd) ([1]; single oral dose): about 640 liters | period of release, controlled and increasing dose ([2]; ascending release profile, FIG. 5): 24 h | period of release of active agent ([2]; first-order release profile, FIG. 4): about 20 hours | amount released ([2]; first-order release profile, after 11 hours, FIG. 4): 90% | period of release of active agent ([2]; zero-order release profile, FIG. 3): about 20 hours | amount released ([2]; zero-order release profile, after 16 hours, FIG. 3): 90%
Compound: Nc1cnc(-c2cc(Cl)cc(Cl)c2Cl)c(N)n1 [3-(2,3,5-trichloro-phenyl)-pyrazine-2,6-diamine]
